Assay results from paper PMC4207539 (Journal of Medicinal Chemistry, 2014).
pEC50: −log10 of the molar value. Values joined by “and” are separate entries in the source; they are usually repeats but may differ in a detail not shown here. Equal entries are not always repeated.

Tests used:
VEEV TC-83 strain = assay type: cell-based, Venezuelan equine encephalitis virus
[1] = male, in vivo
VEEV (TC-83) [2] = conditions: mouse, in vivo
[3] = mouse, in vivo, ip
CYP2C19 = CYP2C19 (Homo sapiens, UniProt P33261); test: in vitro; conditions: pH 7.4
VEEV TrD strain = assay type: cell-based, Venezuelan equine encephalitis virus
[4] = test system: panel of 67 GPCRs, ion channels and transporters; assay type: binding; conditions: 10 µM
CYP2C9 = CYP2C9 (Homo sapiens, UniProt P11712); test: in vitro; conditions: pH 7.4
CYP2D6 = CYP2D6 (Homo sapiens, UniProt P10635); test: in vitro; conditions: pH 7.4
CYP3A4 = CYP3A4 (Homo sapiens, UniProt P08684); test: in vitro; conditions: pH 7.4
VEEV (TC-83) [5] = test: microbe, parasite or virus in culture; conditions: Venezuelan equine encephalitis virus, read-out: EC50, several VEEV strains
Fa2N-4 cells = conditions: human
VEEV (TC-83) [6] = test system: VEEV (TC-83)

Chain of CYP3A4 (P08684 whole entry): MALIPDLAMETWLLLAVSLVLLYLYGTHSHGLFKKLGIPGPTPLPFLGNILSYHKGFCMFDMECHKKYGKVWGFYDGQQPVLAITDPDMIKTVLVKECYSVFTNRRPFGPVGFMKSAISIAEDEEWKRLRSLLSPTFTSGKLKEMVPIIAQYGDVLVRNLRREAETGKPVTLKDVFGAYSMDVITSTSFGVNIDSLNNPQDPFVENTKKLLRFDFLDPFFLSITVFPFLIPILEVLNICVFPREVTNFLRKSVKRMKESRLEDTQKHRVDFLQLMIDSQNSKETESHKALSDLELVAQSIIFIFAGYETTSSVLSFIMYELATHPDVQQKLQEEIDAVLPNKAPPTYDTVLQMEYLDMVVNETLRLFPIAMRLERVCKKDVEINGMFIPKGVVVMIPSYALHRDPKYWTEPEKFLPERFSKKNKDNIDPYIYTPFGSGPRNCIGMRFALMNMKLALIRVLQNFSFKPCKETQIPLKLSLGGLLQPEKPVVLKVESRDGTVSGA
Chain of CYP2C9 (P11712 whole entry): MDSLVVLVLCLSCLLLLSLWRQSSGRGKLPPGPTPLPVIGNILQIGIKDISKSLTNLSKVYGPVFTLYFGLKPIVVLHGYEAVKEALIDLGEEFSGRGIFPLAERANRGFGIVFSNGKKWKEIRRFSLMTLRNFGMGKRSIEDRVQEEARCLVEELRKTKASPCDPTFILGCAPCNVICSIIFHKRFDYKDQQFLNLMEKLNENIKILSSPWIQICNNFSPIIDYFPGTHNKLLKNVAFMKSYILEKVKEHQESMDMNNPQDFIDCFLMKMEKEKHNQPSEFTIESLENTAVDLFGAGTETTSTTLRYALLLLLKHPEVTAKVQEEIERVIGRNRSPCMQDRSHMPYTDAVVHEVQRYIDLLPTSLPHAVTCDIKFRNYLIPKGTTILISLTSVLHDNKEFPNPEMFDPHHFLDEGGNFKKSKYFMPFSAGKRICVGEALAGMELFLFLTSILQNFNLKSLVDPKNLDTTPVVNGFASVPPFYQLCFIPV
Chain of CYP2D6 (P10635 whole entry): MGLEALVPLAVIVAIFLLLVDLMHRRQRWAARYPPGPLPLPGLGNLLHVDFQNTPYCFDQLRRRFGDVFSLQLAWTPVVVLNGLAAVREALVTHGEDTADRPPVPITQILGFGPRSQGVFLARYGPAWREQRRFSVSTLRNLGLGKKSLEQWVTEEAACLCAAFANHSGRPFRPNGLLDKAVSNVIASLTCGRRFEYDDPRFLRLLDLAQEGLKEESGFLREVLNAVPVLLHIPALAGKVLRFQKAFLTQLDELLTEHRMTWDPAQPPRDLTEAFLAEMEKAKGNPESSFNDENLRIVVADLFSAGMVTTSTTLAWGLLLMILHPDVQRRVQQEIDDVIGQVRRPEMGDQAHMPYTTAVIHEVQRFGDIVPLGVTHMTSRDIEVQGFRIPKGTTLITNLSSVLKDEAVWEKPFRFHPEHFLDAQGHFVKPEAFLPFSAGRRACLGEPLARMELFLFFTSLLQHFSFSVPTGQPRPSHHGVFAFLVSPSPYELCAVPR
Chain of CYP2C19 (P33261 whole entry): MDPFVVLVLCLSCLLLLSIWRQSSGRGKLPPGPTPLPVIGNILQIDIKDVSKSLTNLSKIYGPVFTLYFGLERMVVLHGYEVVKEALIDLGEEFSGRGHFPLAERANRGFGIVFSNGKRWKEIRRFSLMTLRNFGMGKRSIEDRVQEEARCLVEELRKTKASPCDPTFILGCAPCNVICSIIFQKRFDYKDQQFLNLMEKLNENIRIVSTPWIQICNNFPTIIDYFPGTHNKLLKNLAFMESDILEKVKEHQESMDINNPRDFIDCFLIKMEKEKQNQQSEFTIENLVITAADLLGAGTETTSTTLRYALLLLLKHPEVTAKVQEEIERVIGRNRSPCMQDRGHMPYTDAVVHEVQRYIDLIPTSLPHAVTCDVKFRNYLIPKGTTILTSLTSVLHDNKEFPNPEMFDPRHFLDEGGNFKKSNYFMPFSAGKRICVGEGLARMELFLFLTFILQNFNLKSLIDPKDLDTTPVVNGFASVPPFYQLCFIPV

Row | SMILES | titer reduction, TC-83 strain (log) (VEEV TC-83 strain) | plasma and brain concentration over in vitro CPE assay EC50 ([1]; C57Bl/6, mouse) [fold] | brain average concentration ± standard deviation ([1]; C57Bl/6J, mouse) [µM] | percent survival (VEEV (TC-83) [2]) [%] | toxicity (body weight loss, lethargy, hunched posture, ruffled fur) [3] | inhibition at 10 µM (CYP2C19) [%] | titer reduction, TrD strain (VEEV TrD strain) | solubility (physchem; aqueous solubility, VEEV CPE assay medium) [µg/mL] | solubility (physchem; pH 7.4, aqueous solubility, 1× PBS, pH 7.4) [µM] | inhibition of all other targets in the collection [4] [%] | inhibition at 10 µM (CYP2C9) [%] | inhibition at 10 µM (CYP2D6) [%] | inhibition at 10 µM (CYP3A4) [%] | pEC50 (VEEV (TC-83) [5]) | titer reduction, TC-83 strain (fold) (VEEV TC-83 strain) | titer reduction, TC-83 strain, dose response, EC90 (VEEV TC-83 strain) [nM] | hepatocyte toxicity (Fa2N-4), LD50 (Fa2N-4 cells) [µM] | lipophilic ligand efficiency, LLE (VEEV (TC-83) [6])
1 | CCN1CCN(Cc2nc3ccc([N+](=O)[O-])cc3c(=O)n2-c2ccccc2F)CC1 [compound 1, 2-((4-Ethylpiperazin-1-yl)methyl)-3-(2-fluorophenyl)-6-nitroquinazolin-4(3H)-one] | 0.5 log (3-fold) | – | – | – | – | – | – | – | – | – | – | – | – | – | – | – | – | –
2 | CN1CCN(C)/C(=N/c2ccc([N+](=O)[O-])cc2C(=O)Nc2ccccc2)C1 [compound 45, (E)-2-((1,4-Dimethylpiperazin-2-ylidene)amino)-5-nitro-N-phenylbenzamide] | – | > 10 | 0.35 ± 0.06 | 71 | no apparent toxicity or adverse effects were observed | < 30 | no measurable viral replication | 13.1 | 110 | ≤ 36 | < 30 | < 30 | < 30 | 7.40 to 7.70 | 5.8 log (630 000 fold) and 7.2 log (16 million fold) | 170 | > 25 | –
3 | COc1ccc(NC(=O)c2cc([N+](=O)[O-])ccc2/N=C2\CN(C)CCN2C)cc1 [compound 51, (E)-2-((1,4-Dimethylpiperazin-2-ylidene)amino)-N-(4-methoxyphenyl)-5-nitrobenzamide] | 7.2 log (16 million fold) | – | – | – | – | – | no measurable viral replication | – | – | – | – | – | – | – | 7.2 log (16 million fold) | 170 | – | 4.1
